We go through one compound from patent US8784893B2, “Polymer formulations for delivery of bioactive agents” (Carbylan Therapeutics, Inc., priority 2007, dated 2014).

A short description of this series: In vitro release of solid steroid from Carb-S/PEG-DA crosslinked (CARBYLAN-SX) gels into PBS. The settings on record: solid drug in gel, 37° C., after 72 hours of incubation. In kind it is physicochemical. The procedure: A 1.75% (w/v) solution of the Carb-S (Example 2) was prepared using deionized water and the pH was adjusted to 7.4. […] A 4% (w/v) polyethylene glycol diacrylate (PEG-DA) [Mw=3400] solution was prepared using deionized water and the pH was adjusted to 7.4. […] After vortexing the mixture, 0.2 mL of the mixture was added to a 15 mL plastic centrifuge tube. […] The samples were kept at 37° C. by placing the shaker in an incubation oven that was set at 37° C. At specific intervals (24 hrs), the PBS buffer supernatant was removed from the tube and the steroid concentration in the PBS buffer was determined using UV absorption spectroscopy. […] 10 mL fresh PBS buffer was added to each tube and the tubes were returned to the shaker. This gelation and release testing was repeated in a similar manner using solid beclamethasone dipropionate (10 mg). […] Controlled Release, 1 (2000)).

For the compound `CCC(=O)OCC(=O)[C@@]1(OC(=O)CC)[C@@H](C)C[C@H]2[C@@H]3CCC4=CC(=O)C=C[C@]4(C)[C@@]3(Cl)[C@@H](O)C[C@@]21C` [beclomethasone diproprionate], the “Drug detected (released) from the CARBYLAN-SX polymer matrix” value is “less than 5%”.
